Experimental data as given in article PMC11420952, “A Chemical Approach to Assess the Impact of Post-translational Modification on MHC Peptide Binding and Effector Cell Engagement” (ACS Chemical Biology, 2024).
Where no end group is shown, it is not given here. [ ]: non-standard residue; d: D form. The star is where a group is joined. Biotin = O=C1N[C@H]2[C@H](CS[C@H]2CCCCC(=O)*)N1; Cit = NC(=O)NCCC[C@H](N)C(=O)O

Key:
MHC on RMA-S cells = experiment: Mild acid elution of MHC-bound peptides from RMA-S cells and mass spectrometry; format: cell-based; conditions: 10^9 RMA-S cells, 20 μM peptide, mild acid elution pH 3.3, LC-MS/MS (LTQ-Orbitrap); Figures S5-S8
Protocol: We then sought to detect changes in peptide binding via a competition assay using the parent cell line (RMA) that has a competent TAP system. To this end, we performed a competition assay using the panel of OVA peptides barring PTM mark in live RMA cells. The assay was performed by coincubating RMA cells individually with PTM-modified peptides and also ovaFl (SIINFEK(FITC)L), in which the […] of lysine is modified with fluoresceine. ovaFl has long been utilized by the field to interrogate binding of untagged peptides for MHC molecules. A decrease in cellular fluorescence should indicate higher association levels with MHC molecules, thereby informing on the relative affinity of the PTM-modified molecules. Critically, this assay retains MHC molecules within a physiologically relevant context and this alternative readout should complement the RMA-S MHC stabilization assay. […]
The emitter tip of the analytical column was laser-pulled to produce an opening of 2–5 μm, and a 2 mm kasil frit was used in place of the irregular reverse phase (RP) resin. […] If the same precursor ion was selected three times or was detected twice within a 20-s repeat duration, the ion was dynamically excluded for 15 s. […]

H-2K^b [1] = target: T1, H-2K^b (Mus musculus, UniProt P01901); experiment: cell-based; conditions: RMA-S cells, peptide 20 μM, APC anti-mouse H-2K^b antibody, flow cytometry; for effect of PTM on MHC binding versus sarsWT: Figure 1C, mean ± SD n = 3, two-tailed t-test; for effect of PTM on MHC binding versus the unmodified peptide (ovaWT or mbpWT): Figures 2B and 3B, mean ± SD n = 4, two-tailed t-test
T1 construct: endogenous in cells; host or cells: RMA-S cells (TAP-deficient)
T1 sequence (P01901 22-369): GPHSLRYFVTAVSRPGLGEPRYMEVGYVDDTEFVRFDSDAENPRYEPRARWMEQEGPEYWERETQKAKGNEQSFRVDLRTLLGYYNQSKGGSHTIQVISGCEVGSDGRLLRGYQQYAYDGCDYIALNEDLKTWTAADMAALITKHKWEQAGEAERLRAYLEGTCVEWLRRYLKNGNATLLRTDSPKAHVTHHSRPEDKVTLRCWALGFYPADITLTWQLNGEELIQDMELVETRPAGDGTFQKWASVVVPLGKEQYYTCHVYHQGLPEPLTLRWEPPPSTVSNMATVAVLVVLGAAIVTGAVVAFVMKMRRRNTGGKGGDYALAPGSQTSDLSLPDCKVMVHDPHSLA
T1 sequence (P01887 21-119 partner): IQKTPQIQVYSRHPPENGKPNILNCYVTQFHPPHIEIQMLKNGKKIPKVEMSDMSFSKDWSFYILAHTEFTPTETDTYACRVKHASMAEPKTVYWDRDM

[2] = test system: OVA specific TCR of B3Z T cell hybridoma; experiment: B3Z T cell activation with peptide-loaded RMA-S cells (NFAT-LacZ / CPRG); format: cell-based; conditions: RMA-S cells with peptide and B3Z T cells overnight, effector to target 1:1; β-galactosidase by CPRG, absorbance 570 nm; Figure 2C, mean ± SD n = 4
From the text: To assess the impact of ovaWT PTMs on TCR recognition, we utilized the B3Z T cell hybridoma cell line that contains an OVA specific TCR along with a NFAT-LacZ reporter gene that encodes for β-galactosidase on an IL-2 inducible promoter.[79] Upon B3Z recognition of the OVA pMHC complex on RMA-S cells, IL-2 production promotes β-galactosidase expression, which can hydrolyze chlorophenol red-β-D-galactopyranoside (CPRG), and the resulting color change is representative of activation levels.
10^5 RMA-S cells were seeded in a treated 96 well plate at 37 °C overnight. The following day the culture media was replaced with media containing indicated concentration of peptide along with 10^5 B3Z cells in culture media and coincubated overnight. Cells were then spun down at 500xg for 5 min and washed with 1X PBS a total of two times. Lysis buffer containing 0.2% saponin, 500 μM CPRG reagent, 100 mM MgCl2, and 100 mM β-mercaptoethanol in 1X PBS was added to each well. After 2–4 h absorbance 570 was recorded using a BioTek Epoch 2 microplate reader.

H-2K^b [3] = target: T1, H-2K^b; conditions: reported in the literature; cited from earlier work

Substance: SIINFEKL [ovaWT, reference compound]
- detection of MHC-bound peptide after elution from live RMA-S cells (MHC on RMA-S cells): clearly detected

Substance: N-Acetyl ESIVRFPNI [sarsWT with N-terminus acetylation]
- effect of PTM on MHC binding versus sarsWT (H-2K^b [1]): completely disrupted MHC binding

Substance: Citrullinated ESIVRFPNI: sarsWT with arginine to citrulline (R5) (ESIV[Cit]FPNI)
- effect of PTM on MHC binding versus sarsWT (H-2K^b [1]): no significant effect

Substance: Biotinylated Lysine SIINFKEL: ovaWT with biotinylated lysine (SIINFK(Biotin)EL; not fully specified)
- effect of PTM on MHC binding versus the unmodified peptide (ovaWT or mbpWT) (H-2K^b [1]): binding levels are altered but the change is not significant
- effect of PTM on TCR recognition (B3Z activation) versus ovaWT [2]: reduction in TCR recognition

Substance: ovaK7m3: ovaWT with trimethylation of K7
- effect of PTM on MHC binding versus the unmodified peptide (ovaWT or mbpWT) (H-2K^b [1]): does not disrupt binding
- detection of MHC-bound peptide after elution from live RMA-S cells (MHC on RMA-S cells): detected by mass spectrometry

Substance: Phosphoserine SIINFEKL: ovaWT with phosphorylated N-terminal serine
- effect of PTM on MHC binding versus the unmodified peptide (ovaWT or mbpWT) (H-2K^b [1]): significant decrease in MHC binding
- effect of PTM on TCR recognition (B3Z activation) versus ovaWT [2]: reduction in TCR recognition

Substance: SNFVSAGI [cntPEP]
- interaction with H-2K^b (negative control) (H-2K^b [3]): not interact appreciably
